According to patent publication US20260049101A1, “TOPICAL TREATMENT OF SKIN CANCER USING OLIGOPEPTIDES” (BACOBA AG, priority 2022, published 2026):
Numbered stars: 1 amine (or outer) side, 2 acyl side, 3 side chain; on linkers, the order of the positions; unused ones are H or OH. Square brackets hold non-standard residues; d marks the D form. Peptide text beside a SMILES is read from it. * marks the point of attachment. X2 = COc1ccc2nc(C[C@H](N[*:1])C(=O)[*:2])sc2c1; X5 = O=C([C@H](Cc1nc2ccc(F)cc2s1)N[*:1])[*:2]; X7 = O=C([C@H](Cc1nc2ccccc2o1)N[*:1])[*:2]; NH(2-morpholinoethyl) = C(CN1CCOCC1)N*; NH(1-CH2NMe2-cBu) = CN(C)CC1(N*)CCC1; Gly(octyl) = CCCCCCCC[C@H](N)C(=O)O; Oxazole4CO(2-Me) = Cc1nc(C(=O)*)co1; Benzoyl(4-F) = O=C(c1ccc(F)cc1)*; hCha = N[C@@H](CCC1CCCCC1)C(=O)O; Cha = N[C@@H](CC1CCCCC1)C(=O)O; X6 = CC(C)(CN[*:1])C(=O)[*:2]; NHCH2CH2NMe2 = CN(C)CCN*; NHCH2CH2NHMe = CNCCN*; Aib = CC(C)(N)C(=O)O; X3 = CN(CCN*)CC(F)F; βAla = NCCC(=O)O

Test system: cutaneous squamous cell carcinoma cell line SCC12
Assay: In vitro anti-proliferative assay (resazurin) in SCC12
Assay type: cell-based
Conditions: SCC12, 72 hours
Text: Methodology. The cutaneous squamous cell carcinoma cell culture SCC12 was cultivated in keratinocyte-SFM media (KSFM, Cat #17005042, Gibco) supplemented with human recombinant epidermal growth factor 1-53 (EGF 1-53) and bovine pituitary extract (BFE).
Vehicle treated wells were set to 100% viability.

| Compound | IC50 |
| --- | --- |
| CCCCCCCC[C@H](NC(=O)[C@@H]1CCCN1C(=O)c1coc(C)n1)C(=O)N[C@@H](CC(C)C)C(=O)NC(C)(C)C(=O)N[C@@H](CC(C)C)C(=O)N[C@@H](CC(C)C)C(=O)NC(C)(C)C(=O)NC(C)(C)C(=O)NCCC(=O)NCCNC [Compound 7058, (2S)-2-{[(2S)-1-(2-methyl-1,3-oxazole-4-carbonyl)pyrrolidin-2-yl]formamido}-N-[(1S)-3-methyl-1-[(1-methyl-1-{[(1S)-3-methyl-1-{[(1S)-3-methyl-1-{[1-methyl-1-({1-methyl-1-[(2-{[2-(methylamino)ethyl]carbamoyl}ethyl)carbamoyl]ethyl}carbamoyl)ethyl]carbamoyl}butyl]carbamoyl}butyl]carbamoyl}ethyl)carbamoyl]butyl]decanamide] ({Oxazole4CO(2-Me)}-P[Gly(octyl)]L[Aib]LL[Aib][Aib][βAla]-NHCH2CH2NHMe) | 0.717 µM |
| Cc1nc(C(=O)N2CCC[C@H]2C(=O)N[C@@H](CC2CCCCC2)C(=O)N[C@@H](CC(C)C)C(=O)NC(C)(C)C(=O)N[C@@H](CC(C)C)C(=O)N[C@@H](CC(C)C)C(=O)NC(C)(C)C(=O)NC(C)(C)C(=O)NCCC(=O)NC2(CN(C)C)CCC2)co1 [Compound 7059, (2S)-2-[(2S)-3-cyclohexyl-2-{[(2S)-1-(2-methyl-1,3-oxazole-4-carbonyl)pyrrolidin-2-yl]formamido}propanamido]-N-(1-{[(1S)-1-{[(1S)-1-({1-[(1-{[2-({1-[(dimethylamino)methyl]cyclobutyl}carbamoyl)ethyl]carbamoyl}-1-methylethyl)carbamoyl]-1-methylethyl}carbamoyl)-3-methylbutyl]carbamoyl}-3-methylbutyl]carbamoyl}-1-methylethyl)-4-methylpentanamide] ({Oxazole4CO(2-Me)}-P[Cha]L[Aib]LL[Aib][Aib][βAla]-{NH(1-CH2NMe2-cBu)}) | 0.5 µM |
| COc1ccc(-c2ccc(OC[C@H](NC(=O)[C@@H]3CCCN3C(=O)c3ccc(F)cc3)C(=O)N[C@@H](CC(C)C)C(=O)NC(C)(C)C(=O)N[C@@H](CC(C)C)C(=O)N[C@@H](CC(C)C)C(=O)NC(C)(C)C(=O)NC(C)(C)C(=O)NCCC(=O)NC3(CN(C)C)CCC3)cc2)cc1 [Compound 7824, (2S)—N-{1-[(1-{[2-({1-[(dimethylamino)methyl]cyclobutyl}carbamoyl)ethyl]carbamoyl}-1-methylethyl)carbamoyl]-1-methylethyl}-2-[(2S)-2-{2-[(2S)-2-[(2S)-2-{[(2S)-1-(4-fluorobenzoyl)pyrrolidin-2-yl]formamido}-3-({4′-methoxy-[1,1′-biphenyl]-4-yl}oxy)propanamido]-4-methylpentanamido]-2-methylpropanamido}-4-methylpentanamido]-4-methylpentanamide] | 0.375 µM |
| COc1ccc2nc(C[C@H](NC(=O)[C@@H]3CCCN3C(=O)c3ccc(F)cc3)C(=O)N[C@@H](CC(C)C)C(=O)NC(C)(C)C(=O)N[C@@H](CC(C)C)C(=O)N[C@@H](CC(C)C)C(=O)NC(C)(C)C(=O)NC(C)(C)C(=O)NCCC(=O)NC3(CN(C)C)CCC3)sc2c1 [Compound 7844, (2S)—N-(1-{[(1S)-1-{[(1S)-1-({1-[(1-{[2-({1-[(dimethylamino)methyl]cyclobutyl}carbamoyl)ethyl]carbamoyl}-1-methylethyl)carbamoyl]-1-methylethyl}carbamoyl)-3-methylbutyl]carbamoyl}-3-methylbutyl]carbamoyl}-1-methylethyl)-2-[(2S)-2-{[(2S)-1-(4-fluorobenzoyl)pyrrolidin-2-yl]formamido}-3-(6-methoxy-1,3-benzothiazol-2-yl)propanamido]-4-methylpentanamide] ({Benzoyl(4-F)}-P[X2]L[Aib]LL[Aib][Aib][βAla]-{NH(1-CH2NMe2-cBu)}) | 0.546 µM |
| CC(C)C[C@H](NC(=O)[C@H](Cc1nc2ccc(F)cc2s1)NC(=O)[C@@H]1CCCN1C(=O)c1ccc(F)cc1)C(=O)NC(C)(C)C(=O)N[C@@H](CC(C)C)C(=O)N[C@@H](CC(C)C)C(=O)NC(C)(C)C(=O)NC(C)(C)C(=O)NCCC(=O)NC1(CN(C)C)CCC1 [Compound 7848, (2S)—N-(1-{[(1S)-1-{[(1S)-1-({1-[(1-{[2-({1-[(dimethylamino)methyl]cyclobutyl}carbamoyl)ethyl]carbamoyl}-1-methylethyl)carbamoyl]-1-methylethyl}carbamoyl)-3-methylbutyl]carbamoyl}-3-methylbutyl]carbamoyl}-1-methylethyl)-2-[(2S)-3-(6-fluoro-1,3-benzothiazol-2-yl)-2-{[(2S)-1-(4-fluorobenzoyl)pyrrolidin-2-yl]formamido}propanamido]-4-methylpentanamide] ({Benzoyl(4-F)}-P[X5]L[Aib]LL[Aib][Aib][βAla]-{NH(1-CH2NMe2-cBu)}) | 0.182 µM |
| CC(C)C[C@H](NC(=O)[C@H](Cc1nc2ccccc2o1)NC(=O)[C@@H]1CCCN1C(=O)c1ccc(F)cc1)C(=O)NC(C)(C)C(=O)N[C@@H](CC(C)C)C(=O)N[C@@H](CC(C)C)C(=O)NC(C)(C)C(=O)NC(C)(C)C(=O)NCCC(=O)NC1(CN(C)C)CCC1 [Compound 7850, (2S)-2-[(2S)-3-(1,3-benzoxazol-2-yl)-2-{[(2S)-1-(4-fluorobenzoyl)pyrrolidin-2-yl]formamido}propanamido]-N-(1-{[(1S)-1-{[(1S)-1-({1-[(1-{[2-({1-[(dimethylamino)methyl]cyclobutyl}carbamoyl)ethyl]carbamoyl}-1-methylethyl)carbamoyl]-1-methylethyl}carbamoyl)-3-methylbutyl]carbamoyl}-3-methylbutyl]carbamoyl}-1-methylethyl)-4-methylpentanamide] ({Benzoyl(4-F)}-P[X7]L[Aib]LL[Aib][Aib][βAla]-{NH(1-CH2NMe2-cBu)}) | 1.04 µM |
| CC(C)C[C@H](NC(=O)[C@H](CCC1CCCCC1)NC(=O)[C@@H]1CCCN1C(=O)c1ccc(F)cc1)C(=O)NC(C)(C)C(=O)N[C@@H](CC(C)C)C(=O)N[C@@H](CC(C)C)C(=O)NC(C)(C)C(=O)NC(C)(C)C(=O)NCCC(=O)NCCN1CCOCC1 [Compound 8341, (2S)-2-[(2S)-4-cyclohexyl-2-{[(2S)-1-(4-fluorobenzoyl)pyrrolidin-2-yl]formamido}butanamido]-4-methyl-N-(1-methyl-1-{[(1S)-3-methyl-1-{[(1S)-3-methyl-1-{[1-methyl-1-({1-methyl-1-[(2-{[2-(morpholin-4-yl)ethyl]carbamoyl}ethyl)carbamoyl]ethyl}carbamoyl)ethyl]carbamoyl}butyl]carbamoyl}butyl]carbamoyl}ethyl)pentanamide] ({Benzoyl(4-F)}-P[hCha]L[Aib]LL[Aib][Aib][βAla]-{NH(2-morpholinoethyl)}) | 1.02 µM |
| CC(C)C[C@H](NC(=O)[C@H](CCC1CCCCC1)NC(=O)[C@@H]1CCCN1C(=O)c1ccc(F)cc1)C(=O)NC(C)(C)C(=O)N[C@@H](CC(C)C)C(=O)N[C@@H](CC(C)C)C(=O)NC(C)(C)C(=O)NC(C)(C)C(=O)NCCC(=O)NCCN(C)CC(F)F [Compound 8342, (2S)-2-[(2S)-4-cyclohexyl-2-{[(2S)-1-(4-fluorobenzoyl)pyrrolidin-2-yl]formamido}butanamido]-N-(1-{[(1S)-1-{[(1S)-1-({1-[(1-{[2-({2-[(2,2-difluoroethyl)(methyl)amino]ethyl}carbamoyl)ethyl]carbamoyl}-1-methylethyl)carbamoyl]-1-methylethyl}carbamoyl)-3-methylbutyl]carbamoyl}-3-methylbutyl]carbamoyl}-1-methylethyl)-4-methylpentanamide] ({Benzoyl(4-F)}-P[hCha]L[Aib]LL[Aib][Aib][βAla]-X3) | 0.584 µM |
| CC(C)C[C@H](NC(=O)[C@H](CCC1CCCCC1)NC(=O)[C@@H]1CCCN1C(=O)c1ccc(F)cc1)C(=O)NC(C)(C)C(=O)N[C@@H](CC(C)C)C(=O)N[C@@H](CC(C)C)C(=O)NC(C)(C)C(=O)NC(C)(C)C(=O)NCCC(=O)NCCN(C)C [Compound 8343, (2S)-2-[(2S)-4-cyclohexyl-2-{[(2S)-1-(4-fluorobenzoyl)pyrrolidin-2-yl]formamido}butanamido]-N-(1-{[(1S)-1-{[(1S)-1-{[1-({1-[(2-{[2-(dimethylamino)ethyl]carbamoyl}ethyl)carbamoyl]-1-methylethyl}carbamoyl)-1-methylethyl]carbamoyl}-3-methylbutyl]carbamoyl}-3-methylbutyl]carbamoyl}-1-methylethyl)-4-methylpentanamide] ({Benzoyl(4-F)}-P[hCha]L[Aib]LL[Aib][Aib][βAla]-NHCH2CH2NMe2) | 0.241 µM |
| CC(C)C[C@H](NC(=O)[C@H](CC(C)C)NC(=O)C(C)(C)NC(=O)[C@H](CC(C)C)NC(=O)[C@H](CCC1CCCCC1)NC(=O)[C@@H]1CCCN1C(=O)c1ccc(F)cc1)C(=O)NC(C)(C)C(=O)NCC(C)(C)C(=O)NCCC(=O)NC1(CN(C)C)CCC1 [Compound 21164, (2S)-2-[(2S)-4-cyclohexyl-2-{[(2S)-1-(4-fluorobenzoyl)pyrrolidin-2-yl]formamido}butan-amido]-N-(1-{[(1S)-1-{[(1S)-1-({1-[(2-{[2-({1-[(dimethylamino)methyl]cyclobutyl}carba-moyl)ethyl]carbamoyl}-2,2-dimethylethyl)carbamoyl]-1-methylethyl}carbamoyl)-3-methylbutyl]carbamoyl}1-3-methylbutyl]carbamoyl}-1-methylethyl)-4-methylpentanamide] ({Benzoyl(4-F)}-P[hCha]L[Aib]LL[Aib][X6][βAla]-{NH(1-CH2NMe2-cBu)}) | 0.712 µM |
| CC(C)C[C@H](NC(=O)[C@H](CCC1CCCCC1)NC(=O)[C@@H]1CCCN1C(=O)c1ccc(F)cc1)C(=O)NCC(C)(C)C(=O)N[C@@H](CC(C)C)C(=O)N[C@@H](CC(C)C)C(=O)NCC(C)(C)C(=O)NCC(C)(C)C(=O)NCCC(=O)NC1(CN(C)C)CCC1 [Compound 21189, (2S)-2-[(2S)-4-cyclohexyl-2-{[(2S)-1-(4-fluorobenzoyl)pyrrolidin-2-yl]formamido}butan-amido]-N-(2-{[(1S)-1-{[(1S)-1-({2-[(2-{[2-({1-[(dimethylamino)methyl]cyclobutyl}carbamoyl)ethyl]carbamoyl}-2,2-dimethylethyl)carbamoyl]-2,2-dimethylethyl}carbamoyl)-3-methylbutyl]carbamoyl}-3-methylbutyl]carbamoyl}-2,2-dimethylethyl)-4-methylpentanamide] | > 10 µM |
